Test results from ChEMBL document CHEMBL3885881, “DrugMatrix”.

Organism: Rattus norvegicus
Test: DrugMatrix - Regimen: Daily Repeat
Type: toxicity, organism-based, Sprague-Dawley
Design: regimen Daily Repeat, gender Male, age 6-8 weeks
Conditions: in vivo, po, route oral GAVAGE, […]; for ABSOLUTE BASOPHIL / ABSOLUTE EOSINOPHIL / ABSOLUTE LYMPHOCYTE / ABSOLUTE MONOCYTE / ABSOLUTE SEGMENTED NEUTROPHIL / BASOPHIL / EOSINOPHIL / ERYTHROCYTE COUNT / HEMATOCRIT / HEMOGLOBIN / LEUKOCYTE COUNT / LYMPHOCYTE / MEAN CORPUSCULAR HEMOGLOBIN / MEAN CORPUSCULAR HEMOGLOBIN CONCENTRATION / MEAN CORPUSCULAR VOLUME / MONOCYTE / NEUTROPHIL / NUCLEATED RED BLOOD CELLS / PLATELET COUNT: tissue Blood; for ALANINE AMINOTRANSFERASE / ALBUMIN / ALKALINE PHOSPHATASE / ASPARTATE AMINOTRANSFERASE / BLOOD UREA NITROGEN / CARBON DIOXIDE / CHLORIDE / CHOLESTEROL / CREATINE PHOSPHOKINASE / CREATININE / GLUCOSE / LACTATE DEHYDROGENASE / LIPASE / PHOSPHORUS / POTASSIUM / SODIUM / TOTAL BILIRUBIN / TOTAL PROTEIN / URIC ACID: tissue Plasma
[1] = 100 mg/kg, 120 h, dose level Low, time 5 day
[2] = 1000 mg/kg, 72 h, dose level High, time 3 day
[3] = 1000 mg/kg, 120 h, dose level High, time 5 day

SMILES: CCCC[C@@H](CC)COC(=O)c1ccccc1C(=O)OC[C@@H](CC)CCCC [BIS(2-ETHYLHEXYL)PHTHALATE]
- ABSOLUTE BASOPHIL [1]: 0 CELLS/uL
- ABSOLUTE EOSINOPHIL [1]: 0 CELLS/uL
- ABSOLUTE LYMPHOCYTE [1]: 8094 CELLS/uL
- ABSOLUTE MONOCYTE [1]: 0 CELLS/uL
- ABSOLUTE SEGMENTED NEUTROPHIL [1]: 772.67 CELLS/uL
- BASOPHIL [1]: 0%
- EOSINOPHIL [1]: 0%
- ERYTHROCYTE COUNT [1]: 5.86 x10E6/uL
- HEMATOCRIT [1]: 36.1%
- HEMOGLOBIN [1]: 13.63 G/DL
- LEUKOCYTE COUNT [1]: 8.87 x10E3/uL
- LYMPHOCYTE [1]: 92.33%
- MEAN CORPUSCULAR HEMOGLOBIN [1]: 23.33 pg
- MEAN CORPUSCULAR HEMOGLOBIN CONCENTRATION [1]: 37.8 G/DL
- MEAN CORPUSCULAR VOLUME [1]: 61.67 fL
- MONOCYTE [1]: 0%
- NEUTROPHIL [1]: 7.67%
- NUCLEATED RED BLOOD CELLS [1]: 0 /100WBC
- PLATELET COUNT [1]: 682.33 x10E3/uL
- ALANINE AMINOTRANSFERASE [1]: 80 u/L
- ALBUMIN [1]: 4.27 G/DL
- ALKALINE PHOSPHATASE [1]: 577.33 u/L
- ASPARTATE AMINOTRANSFERASE [1]: 98.33 u/L
- BLOOD UREA NITROGEN [1]: 14.67 mg/dL
- CARBON DIOXIDE [1]: 35.67 mmol/L
- CHLORIDE [1]: 99 MEQ/L
- CHOLESTEROL [1]: 41 mg/dL
- CREATINE PHOSPHOKINASE [1]: 172 u/L
- CREATININE [1]: 0.21 mg/dL
- GLUCOSE [1]: 156.33 mg/dL
- LACTATE DEHYDROGENASE [1]: 135.33 u/L
- LIPASE [1]: 22.33 u/L
- PHOSPHORUS [1]: 10.4 mg/dL
- POTASSIUM [1]: 5.25 MEQ/L
- SODIUM [1]: 144.53 MEQ/L
- TOTAL BILIRUBIN [1]: 0.17 mg/dL
- TOTAL PROTEIN [1]: 5.63 G/DL
- URIC ACID [1]: 0.63 mg/dL
- ABSOLUTE BASOPHIL [2]: 0 CELLS/uL
- ABSOLUTE EOSINOPHIL [2]: 0 CELLS/uL
- ABSOLUTE LYMPHOCYTE [2]: 10510 CELLS/uL
- ABSOLUTE MONOCYTE [2]: 28 CELLS/uL
- ABSOLUTE SEGMENTED NEUTROPHIL [2]: 628.67 CELLS/uL
- BASOPHIL [2]: 0%
- EOSINOPHIL [2]: 0%
- ERYTHROCYTE COUNT [2]: 5.07 x10E6/uL
- HEMATOCRIT [2]: 32.33%
- HEMOGLOBIN [2]: 12.8 G/DL
- LEUKOCYTE COUNT [2]: 11.17 x10E3/uL
- LYMPHOCYTE [2]: 93.67%
- MEAN CORPUSCULAR HEMOGLOBIN [2]: 25.3 pg
- MEAN CORPUSCULAR HEMOGLOBIN CONCENTRATION [2]: 39.57 G/DL
- MEAN CORPUSCULAR VOLUME [2]: 63.8 fL
- MONOCYTE [2]: 0.33%
- NEUTROPHIL [2]: 6%
- NUCLEATED RED BLOOD CELLS [2]: 0 /100WBC
- PLATELET COUNT [2]: 532 x10E3/uL
- ALANINE AMINOTRANSFERASE [2]: 82 u/L
- ALBUMIN [2]: 4.03 G/DL
- ALKALINE PHOSPHATASE [2]: 468.67 u/L
- ASPARTATE AMINOTRANSFERASE [2]: 94 u/L
- BLOOD UREA NITROGEN [2]: 14.67 mg/dL
- CARBON DIOXIDE [2]: 26 mmol/L
- CHLORIDE [2]: 96.33 MEQ/L
- CHOLESTEROL [2]: 44.67 mg/dL
- CREATINE PHOSPHOKINASE [2]: 477.67 u/L
- CREATININE [2]: 0.2 mg/dL
- GLUCOSE [2]: 161.67 mg/dL
- LACTATE DEHYDROGENASE [2]: 137 u/L
- LIPASE [2]: 8.67 u/L
- PHOSPHORUS [2]: 10.3 mg/dL
- POTASSIUM [2]: 4.99 MEQ/L
- SODIUM [2]: 137.1 MEQ/L
- TOTAL BILIRUBIN [2]: 0.0667 mg/dL
- TOTAL PROTEIN [2]: 5.33 G/DL
- URIC ACID [2]: 0.77 mg/dL
- ABSOLUTE BASOPHIL [3]: 0 CELLS/uL
- ABSOLUTE EOSINOPHIL [3]: 0 CELLS/uL
- ABSOLUTE LYMPHOCYTE [3]: 8272 CELLS/uL
- ABSOLUTE MONOCYTE [3]: 65 CELLS/uL
- ABSOLUTE SEGMENTED NEUTROPHIL [3]: 663 CELLS/uL
- BASOPHIL [3]: 0%
- EOSINOPHIL [3]: 0%
- ERYTHROCYTE COUNT [3]: 5.57 x10E6/uL
- HEMATOCRIT [3]: 34.07%
- HEMOGLOBIN [3]: 13.37 G/DL
- LEUKOCYTE COUNT [3]: 9 x10E3/uL
- LYMPHOCYTE [3]: 92%
- MEAN CORPUSCULAR HEMOGLOBIN [3]: 24 pg
- MEAN CORPUSCULAR HEMOGLOBIN CONCENTRATION [3]: 39.23 G/DL
- MEAN CORPUSCULAR VOLUME [3]: 61.2 fL
- MONOCYTE [3]: 0.67%
- NEUTROPHIL [3]: 7.33%
- NUCLEATED RED BLOOD CELLS [3]: 0 /100WBC
- PLATELET COUNT [3]: 1014.67 x10E3/uL
- ALANINE AMINOTRANSFERASE [3]: 84.67 u/L
- ALBUMIN [3]: 4.23 G/DL
- ALKALINE PHOSPHATASE [3]: 412.67 u/L
- ASPARTATE AMINOTRANSFERASE [3]: 99 u/L
- BLOOD UREA NITROGEN [3]: 14.33 mg/dL
- CARBON DIOXIDE [3]: 35.33 mmol/L
- CHLORIDE [3]: 100.33 MEQ/L
- CHOLESTEROL [3]: 53 mg/dL
- CREATINE PHOSPHOKINASE [3]: 324.67 u/L
- CREATININE [3]: 0.12 mg/dL
- GLUCOSE [3]: 168.33 mg/dL
- LACTATE DEHYDROGENASE [3]: 165.33 u/L
- LIPASE [3]: 9.33 u/L
- PHOSPHORUS [3]: 10.6 mg/dL
- POTASSIUM [3]: 5.56 MEQ/L
- SODIUM [3]: 144.83 MEQ/L
- TOTAL BILIRUBIN [3]: 0.13 mg/dL
- TOTAL PROTEIN [3]: 5.77 G/DL
- URIC ACID [3]: 0.7 mg/dL
